Legend:
[1] = system: harmful plants such as Sinapis alba, Chrysanthemum segetum, Avena sativa, Stellaria media, Echinochloa crus-galli, Lolium multiflorum, Setaria spp., Abutilon …; test: Pre-emergence effect on weeds (greenhouse pot test, visual scoring); type: in vivo, monocotyledonous and dicotyledonous weed plants; conditions: application rate of 0.3 kg and less of active substance per hectar, scored visually after 3 to 4 weeks by comparison with untreated controls
Description: 1. Pre-Emergence Effect on Weeds
Seeds or rhizome pieces of monocotyledonous and dicotyledonous weed plants were placed in sandy loam soil in cardboard pots and covered with soil. The compounds according to the invention which were formulated in the form of wettable powders or emulsion concentrates were then applied to the surface of the soil cover in the form of aqueous suspensions or emulsions at an application rate of 600 to 800 l of water/ha (converted), in various dosages.
After the treatment, the pots were placed in a greenhouse and kept under good growth conditions for the weeds. After the test plants had emerged, the damage to the plants or the negative effect on the emergence was scored visually after a test period of 3 to 4 weeks by comparison with untreated controls. As shown by the test results, compounds according to the invention have good herbicidal pre-emergence activity against a broad spectrum of weed grasses and broad-leafed weeds.

[2] = system: harmful plants such as Sinapis alba, Echinochloa crus-galli, Lolium multiflorum, Chrysanthemum segetum, Setaria spp., Abutilon theophrasti, Amaranthus …; test: Post-emergence effect on weeds (greenhouse pot test, visual scoring); type: in vivo, monocotyledonous and dicotyledonous weeds; conditions: three-leaf stage, application rate of 0.3 kg and less of active substance per hectare, scored visually after about 3 to 4 weeks by comparison with untreated controls
Method: 2. Post-Emergence Effect on Weeds
Seeds or rhizome pieces of monocotyledonous and dicotyledonous weeds were placed in sandy loam soil in plastic pots, covered with soil and grown in a greenhouse under good growth conditions. Three weeks after sowing, the test plants were treated at the three-leaf stage. The compounds according to the invention which were formulated as wettable powders or emulsion concentrates were sprayed, at various dosages, onto the green parts of the plants at an application rate of 600 to 800 l of water/ha (converted). After the test plants had remained in the greenhouse for about 3 to 4 weeks under ideal growth conditions, the effect of the preparations was scored visually by comparison with untreated controls. The agents according to the invention also have good herbicidal activity post-emergence against a broad spectrum of economically important Weed grasses and broad-loafed weeds.

| Compound | herbicidal activity against harmful plants, pre-emergence [1] | herbicidal activity against harmful plants, post-emergence [2] |
| --- | --- | --- |
| CCNc1cccc(S(=O)(=O)NC(=O)Nc2nc(OC)nc(OC)n2)c1C(=O)OC [Example 1-135] | very good herbicidal activity | very good herbicidal activity |
| COC(=O)c1c(NC2CC2)cccc1S(=O)(=O)NC(=O)Nc1nc(OC)cc(OC)n1 [Example 1-353] | very good herbicidal activity | very good herbicidal activity |
| COC(=O)c1c(NCCCC(F)(F)F)cccc1S(=O)(=O)NC(=O)Nc1nc(C)nc(OC)n1 [Example 1-243] | very good herbicidal activity | very good herbicidal activity |
| CCOC(=O)c1c(N)cccc1S(=O)(=O)NC(=O)Nc1nc(OC)nc(OC)n1 [Example 1-57] | very good herbicidal activity | very good herbicidal activity |
| CCN(CC)c1cccc(S(=O)(=O)NC(=O)Nc2nc(OC)cc(OC)n2)c1C(=O)OC [Example 1-417] | very good herbicidal activity | very good herbicidal activity |
